Data on six compounds can be found in patent EP3722296B1, “DIHYDRONAPHTHYRIDINES AND RELATED COMPOUNDS USEFUL AS KINASE INHIBITORS FOR THE TREATMENT OF PROLIFERATIVE DISEASES” (Deciphera Pharmaceuticals, LLC, priority 2012, dated 2013).

Common to all, as to format: cell-based
The test system of one test is GIST430 cells. The test can be described thus: GIST 430 Cell Proliferation Assay. Particulars: Homo sapiens, 120 h, 115 hours + 5 hours resazurin. The procedure:
GIST48, GIST430, and GIST882 cells were obtained from J. Fletcher (Brigham and Women's Hospital, Boston, MA). GIST T1 cells were obtained from B. Rubin (Cleveland Clinic, Cleveland, OH) and Professor Takahiro Taguchi (Kochi Medical School, Nankoku, Kochi, Japan). Briefly, GIST48 and GIST 882 cells were grown in RPMI 1640 medium supplemented with 15% characterized fetal bovine serum (Invitrogen, Carlsbad, CA), 1 unit/mL penicillin G, 1 µg/ml streptomycin, and 0.29 mg/mL L-glutamine at 37 °C, 5% CO2, and 95% humidity. GIST430 cells were grown in Ham's F10 medium supplemented with 15% characterized fetal bovine serum (Invitrogen, Carlsbad, CA), 30 mg/L bovine pituitary extract (BD Biosciences, San Jose, CA), 0.5% Mito+ serum extender (BD Biosciences, San Jose, CA), 1 unit/mL penicillin G, 1 µg/ml streptomycin, and 0.29 mg/mL L-glutamine at 37 °C, 5%CO2, 95% humidity. GIST T1 cells were grown in DMEM medium supplemented with 10% characterized fetal bovine serum (Invitrogen, Carlsbad, CA), 1 unit/mL penicillin G, 1 µg/ml streptomycin, and 0.29 mg/mL L-glutamine at 37 °C, 5% CO2, and 95% humidity.
A serial dilution of test compound was dispensed into a 384-well black clear bottom plate (Corning, Corning, NY). Two thousand five-hundred cells were added per well in 50 µL complete growth medium. Plates were incubated for 115 hours at 37°C, 5% CO2, 95% humidity. At the end of the incubation period 10 µL of a 440 µM solution of resazurin (Sigma, St. Louis, MO) in PBS was added to each well and incubated for an additional 5 hours at 37°C, 5% CO2, 95% humidity. Plates were read on a Synergy2 reader (Biotek, Winooski, VT) using an excitation of 540 nm and an emission of 600 nm.

Test [1] deals with T1, AY502 duplication/D816G KIT (Homo sapiens, UniProt P10721, D816G/DUP502-503).
T1 construct: V5 (vector-encoded); expressed in transfected cells; host or cells: CHO K1
T1 sequence (P10721 with tags, fused parts or gaps DUP502-503/D816G): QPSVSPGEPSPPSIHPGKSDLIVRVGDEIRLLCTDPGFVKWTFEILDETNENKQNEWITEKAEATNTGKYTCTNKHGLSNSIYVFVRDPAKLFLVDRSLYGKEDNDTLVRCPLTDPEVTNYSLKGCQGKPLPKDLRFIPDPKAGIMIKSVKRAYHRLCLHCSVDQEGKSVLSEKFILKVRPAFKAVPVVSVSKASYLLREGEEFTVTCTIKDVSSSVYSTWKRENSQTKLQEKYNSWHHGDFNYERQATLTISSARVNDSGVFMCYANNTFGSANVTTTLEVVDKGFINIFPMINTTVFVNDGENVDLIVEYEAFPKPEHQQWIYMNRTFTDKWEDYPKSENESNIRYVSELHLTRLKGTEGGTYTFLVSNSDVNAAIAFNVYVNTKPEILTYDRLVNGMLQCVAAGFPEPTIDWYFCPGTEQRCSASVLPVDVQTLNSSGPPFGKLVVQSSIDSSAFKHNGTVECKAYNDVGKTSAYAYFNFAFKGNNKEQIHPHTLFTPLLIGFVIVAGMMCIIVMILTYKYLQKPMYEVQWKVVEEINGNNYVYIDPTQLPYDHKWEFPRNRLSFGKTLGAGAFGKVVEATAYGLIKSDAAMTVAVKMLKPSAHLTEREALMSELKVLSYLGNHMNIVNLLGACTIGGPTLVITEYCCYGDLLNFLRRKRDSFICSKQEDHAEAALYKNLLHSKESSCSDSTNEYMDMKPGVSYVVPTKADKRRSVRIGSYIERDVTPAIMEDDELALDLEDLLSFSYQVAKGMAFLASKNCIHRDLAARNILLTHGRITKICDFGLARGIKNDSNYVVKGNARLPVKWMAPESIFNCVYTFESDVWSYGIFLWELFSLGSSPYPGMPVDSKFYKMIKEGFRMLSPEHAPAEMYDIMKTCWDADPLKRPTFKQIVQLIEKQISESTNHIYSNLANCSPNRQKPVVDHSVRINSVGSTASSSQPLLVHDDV
Put plainly: CHO K1 phospho-KIT ELISA. Particulars: transient transfected CHO K1 cells, phospho-c-KIT (Tyr719), read-out: KIT kinase domain mutations (primary/secondary): AY502 duplication / D816G.

The target of another test is T2, D816V KIT (Homo sapiens, UniProt P10721, D816V).
T2 construct: V5 (vector-encoded); expressed in transfected cells; host or cells: CHO K1
T2 sequence (P10721 26-976 D816V): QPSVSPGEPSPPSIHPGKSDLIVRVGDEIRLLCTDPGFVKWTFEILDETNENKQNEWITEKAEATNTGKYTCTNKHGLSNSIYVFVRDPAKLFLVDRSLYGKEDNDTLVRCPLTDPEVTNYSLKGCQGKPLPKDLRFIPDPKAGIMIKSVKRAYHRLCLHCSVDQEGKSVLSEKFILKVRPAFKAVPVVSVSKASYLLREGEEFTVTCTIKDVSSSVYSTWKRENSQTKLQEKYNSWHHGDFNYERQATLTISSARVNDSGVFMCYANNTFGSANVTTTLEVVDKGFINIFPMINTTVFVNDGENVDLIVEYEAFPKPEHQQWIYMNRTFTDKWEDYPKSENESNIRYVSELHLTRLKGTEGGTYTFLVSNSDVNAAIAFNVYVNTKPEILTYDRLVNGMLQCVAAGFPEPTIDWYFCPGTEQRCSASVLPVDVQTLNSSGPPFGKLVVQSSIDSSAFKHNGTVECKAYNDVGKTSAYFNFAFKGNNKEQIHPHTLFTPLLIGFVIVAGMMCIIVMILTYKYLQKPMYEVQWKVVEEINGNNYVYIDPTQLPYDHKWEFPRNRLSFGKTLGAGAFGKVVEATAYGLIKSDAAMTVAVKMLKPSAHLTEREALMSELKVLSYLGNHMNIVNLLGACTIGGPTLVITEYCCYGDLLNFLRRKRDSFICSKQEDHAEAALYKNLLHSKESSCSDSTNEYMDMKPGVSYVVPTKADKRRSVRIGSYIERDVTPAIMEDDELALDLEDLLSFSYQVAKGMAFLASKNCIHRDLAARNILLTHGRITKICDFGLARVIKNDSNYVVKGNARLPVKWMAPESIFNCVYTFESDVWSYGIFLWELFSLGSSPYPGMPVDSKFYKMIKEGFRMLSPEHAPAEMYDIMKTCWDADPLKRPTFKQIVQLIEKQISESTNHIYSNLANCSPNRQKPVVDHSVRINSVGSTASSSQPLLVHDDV
The test can be described thus: CHO K1 phospho-KIT Western. Particulars: transient transfected CHO K1 cells, phospho-KIT (Tyr719), read-out: KIT kinase domain mutations (primary/secondary): D816V. How it is done:
(§1) Cells were washed with PBS, then lysed. Cell lysates were separated by SDS-PAGE and transferred to PVDF. Phospho-KIT (Tyr719) was detected using an antibody from Cell Signaling Technology (Beverly, MA), ECL Plus detection reagent (GE Healthcare, Piscataway, NJ) and a Molecular Devices Storm 840 phosphorimager in fluorescence mode. Blots were stripped and probed for total KIT using an antibody from Santa Cruz Biotech (Santa Cruz, CA). IC50 values were calculated using Prism software (Graphpad, San Diego, CA).

A further test addresses T3, D820A KIT (Homo sapiens, UniProt P10721, D820A).
T3 construct: V5 (vector-encoded); expressed in transfected cells; host or cells: CHO K1
Put plainly: CHO K1 phospho-KIT Western. The conditions noted are these: transient transfected CHO K1 cells, phospho-KIT (Tyr719), read-out: KIT kinase domain mutations (primary/secondary): D820A. The procedure: as §1

For test [2], the target named is T4, VV559-560 deletion/D816V KIT (Homo sapiens, UniProt P10721, D816V/DEL559-560).
T4 construct: expressed in transfected cells; host or cells: CHO K1
T4 sequence (P10721 with tags, fused parts or gaps DEL559-560/D816V): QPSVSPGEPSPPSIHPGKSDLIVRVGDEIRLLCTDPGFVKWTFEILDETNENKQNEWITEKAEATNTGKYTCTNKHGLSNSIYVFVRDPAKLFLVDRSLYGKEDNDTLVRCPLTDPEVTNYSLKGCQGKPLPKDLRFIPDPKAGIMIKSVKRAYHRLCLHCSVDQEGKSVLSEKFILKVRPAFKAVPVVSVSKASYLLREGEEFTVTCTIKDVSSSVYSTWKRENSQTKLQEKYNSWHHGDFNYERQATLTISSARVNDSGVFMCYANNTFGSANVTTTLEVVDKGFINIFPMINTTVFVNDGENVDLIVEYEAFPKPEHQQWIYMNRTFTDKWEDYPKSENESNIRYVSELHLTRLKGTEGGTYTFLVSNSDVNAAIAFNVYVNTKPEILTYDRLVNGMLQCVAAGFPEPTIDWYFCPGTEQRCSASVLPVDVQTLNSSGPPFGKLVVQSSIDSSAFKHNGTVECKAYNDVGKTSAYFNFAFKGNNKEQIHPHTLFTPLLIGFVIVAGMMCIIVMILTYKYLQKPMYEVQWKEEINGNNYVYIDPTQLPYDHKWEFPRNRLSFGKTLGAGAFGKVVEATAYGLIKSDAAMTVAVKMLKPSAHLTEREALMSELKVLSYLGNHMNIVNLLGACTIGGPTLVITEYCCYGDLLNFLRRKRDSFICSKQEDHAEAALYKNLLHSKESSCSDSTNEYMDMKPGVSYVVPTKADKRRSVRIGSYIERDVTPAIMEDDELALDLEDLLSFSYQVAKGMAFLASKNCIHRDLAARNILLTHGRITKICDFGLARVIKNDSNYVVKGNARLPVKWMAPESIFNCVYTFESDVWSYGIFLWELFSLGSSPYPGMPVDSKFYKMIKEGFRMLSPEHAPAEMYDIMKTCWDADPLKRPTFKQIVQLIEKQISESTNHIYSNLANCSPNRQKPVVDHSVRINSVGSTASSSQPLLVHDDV
The test can be described thus: CHO K1 phospho-KIT Western. The conditions noted are these: transient transfected CHO K1 cells, phospho-KIT (Tyr719), read-out: KIT kinase domain mutations (primary/secondary): VV559-560 deletion / D816V. How it is done:
as §1

In the next test the target is T5, V560D/Y823D (Homo sapiens, UniProt P10721, V560D/Y823D).
T5 construct: V5 (vector-encoded); expressed in transfected cells; host or cells: CHO K1
T5 sequence (P10721 26-976 V560D/Y823D): as the sequence (P10721 26-976 D816V) above, with V535D, V791D, Y798D counted along it
The test can be described thus: CHO K1 phospho-KIT ELISA. Particulars: transient transfected CHO K1 cells, phospho-c-KIT (Tyr719), read-out: KIT kinase domain mutations (primary/secondary): V560D / Y823D.

For test [3], the target named is T6, WKV557-559 deletion/C557insertion/D820A (Homo sapiens, UniProt P10721, D820A/DEL557-558/V559C).
T6 construct: V5 (vector-encoded); expressed in transfected cells; host or cells: CHO K1
T6 sequence (P10721 with tags, fused parts or gaps DEL557-558/V559C/D820A): as the sequence (P10721 with tags, fused parts or gaps DEL559-560/D816V) above, with W532C, K533V, V789D, D793A counted along it
The test can be described thus: CHO K1 phospho-KIT ELISA. The conditions noted are these: transient transfected CHO K1 cells, phospho-c-KIT (Tyr719), read-out: KIT kinase domain mutations (primary/secondary): WKV557-559 deletion.

The target in another test is T7, V560D/N822K (Homo sapiens, UniProt P10721, N822K/V560D).
T7 construct: V5 (vector-encoded); expressed in transfected cells; host or cells: CHO K1
T7 sequence (P10721 26-976 V560D/N822K): as the sequence (P10721 26-976 D816V) above, with V535D, V791D, N797K counted along it
The test can be described thus: CHO K1 phospho-KIT ELISA. The conditions noted are these: transient transfected CHO K1 cells, phospho-c-KIT (Tyr719), read-out: KIT kinase domain mutations (primary/secondary): V560D / N822K.

pIC50: −log10 of the molar value.

T3 sequence (P10721 26-976 D820A): as the sequence (P10721 26-976 D816V) above, with V791D, D795A counted along it

On to `CCn1c(=O)c(-c2cc(NC(=O)Nc3ccccc3)c(F)cc2Cl)cc2cnc(NC)cc21` [Example 3, 1-(4-chloro-5-(1-ethyl-7-(methylamino)-2-oxo-1,2-dihydro-1,6-naphthyridin-3-yl)-2-fluorophenyl)-3-phenylurea], for which the pIC50 with GIST430 cells is 7.00 to 8.00.
For the compound `CCn1c(=O)c(-c2cc(NC(=O)Nc3ccccc3)c(F)cc2C)cc2cnc(NC)cc21` [Example 23, 1-(5-(1-ethyl-7-(methylamino)-2-oxo-1,2-dihydro-1,6-naphthyridin-3-yl)-2-fluoro-4-methylphenyl)-3-phenylurea], the pIC50 in test [1] is 7.00 to 8.00; with GIST430 cells, 7.00 to 8.00; at D816V KIT, under 6.00; on D820A KIT, 7.00 to 8.00; in test [2], 6.00 to 7.00; at V560D/Y823D, over 8.00. The pIC50 (in test [3]; on V560D/N822K) was 7.00 to 8.00 each time.
For the compound `CCn1c(=O)c(-c2cc(NC(=O)Nc3ccccc3)c(F)cc2Cl)cc2cnc(NCCOC)cc21` [Example 27, 1-(4-chloro-5-(1-ethyl-7-(2-methoxyethylamino)-2-oxo-1,2-dihydro-1,6-naphthyridin-3-yl)-2-fluorophenyl)-3-phenylurea], in the test on GIST430 cells, the pIC50 was 6.00 to 7.00.
Regarding `CCn1c(=O)c(-c2cc(NC(=O)Nc3csc4ccccc34)c(F)cc2Cl)cc2cnc(NC)cc21` [Example 32, 1-(benzo[b]thiophen-3-yl)-3-(4-chloro-5-(1-ethyl-7-(methylamino)-2-oxo-1,2-dihydro-1,6-naphthyridin-3-yl)-2-fluorophenyl)urea], in the test on GIST430 cells, the pIC50 is 7.00 to 8.00.
The same measure, in the same setting: the figure for `CCn1c(=O)c(-c2cc(NC(=O)Nc3cccc(F)c3)c(F)cc2C)cc2cnc(NC)cc21` [Example 44, 1-(5-(1-ethyl-7-(methylamino)-2-oxo-1,2-dihydro-1,6-naphthyridin-3-yl)-2-fluoro-4-methylphenyl)-3-(3-fluorophenyl)urea] is 7.00 to 8.00.
As to `CCn1c(=O)c(-c2cc(NC(=O)Nc3csc4ccccc34)c(F)cc2C)cc2cnc(NC)cc21` [Example 59, 1-(benzo[b]thiophen-3-yl)-3-(5-(1-ethyl-7-(methylamino)-2-oxo-1,2-dihydro-1,6-naphthyridin-3-yl)-2-fluoro-4-methylphenyl)urea], the pIC50 at D816V KIT is over 8.00; at D820A KIT it was 7.00 to 8.00; in test [2], 7.00 to 8.00; on V560D/Y823D, over 8.00; in test [3], over 8.00; on V560D/N822K, over 8.00.
